# Columns and labels:
# PKCε = assay: Western analysis of cytosolic and particulate fractions of erythropoietin-treated hearts; set-up: species or system rabbit; conditions: erythropoietin 1.0 U/ml
# Protocol: Western analysis. Hearts from infant rabbits were isolated and aerobically perfused with bicarbonate buffer for 30 minutes at constant pressure, then perfused with erythropoietin for 5 or 15 minutes. The free wall of the left ventricle was excised and immediately freeze-clamped between stainless steel tongs pre-cooled with liquid nitrogen. Frozen myocardial tissue samples were powdered in a pre-cooled stainless steel mortar and pestle.
# The powdered tissue was then processed to obtain cytosolic and particulate fractions for Western analysis, as described in Raflee et al., Circulation 106:239-45 (2002). Powdered tissue was homogenized in sample buffer (50 mM Tris pH 7.5, 5 mM EDTA, 10 mM EGTA, 10 mM benzamidine, 10 μg/ml pepstatin A, 50 μg/ml PMSE, 10 μg/ml aprotinin, 10 μg/ml leupeptin, and 0.3% β-mercaptoenthanol) on ice for 50 strokes. Nuclei and cellular debris was removed by centrifugation (1000 g at. 4° C. for 15 min). The supernatant was transferred to a new cold 1.5 mL microcentrifuge tube. The cytosolic and particulate portions of total cellular proteins were separated by a 30-minute centrifugation at 45000 g. Protein concentrations were determined by the method of Bradford. Equal amounts of protein were analyzed by SDS-PAGE and Western blotting by using either isoform-specific antibodies for phospho-PKC detection or specific antibodies against phosphorylated and non-phosphorylated p38 MAPK, JNK, and p42/44 MAPK. The blots were developed by ECL. Densitometry was performed on each sample and analyzed with the use of NIH image software. Rafiee et al., Circulation 106:239-45 (2002).
# Cytosolic and particulate fractions from erythropoietin-treated and untreated hearts were prepared. Protein content for PKCε, p38 MAP kinase, p42/44 MAP kinase and JUN kinase was determined by SDS-PAGE and Western blot analysis using monoclonal antibodies specific for PKCε, phosphorylated p38 MAP kinase (Thr180/Tyr182), p42/44 MAP kinase (Thr202/Tyr204), and JUN kinase (Thr183/Tyr185). Non-phosphorylated antibodies were used to ensure equal loading of proteins.
# [1] = test system: hearts from normoxic infant rabbits; assay: Isolated Langendorff-perfused heart, 30 min global no-flow ischemia and 35 min reperfusion, normoxic hearts; set-up: species or system New Zealand White rabbit; conditions: for POST DRUG Coronary flow rate / POST DRUG Heart rate / POST DRUG Left ventricle developed pressure / POST DRUG Right ventricle developed pressure / REPERFUSION (35 min) Coronary flow rate / REPERFUSION (35 min) Heart rate / REPERFUSION (35 min) Left ventricle developed pressure / REPERFUSION (35 min) Right ventricle developed pressure: normoxic hearts; for REPERFUSION (35 min) Coronary flow rate / REPERFUSION (35 min) Heart rate / REPERFUSION (35 min) Left ventricle developed pressure / REPERFUSION (35 min) Right ventricle developed pressure: after 30 min ischemia
# Protocol: The study was directed to determining whether erythropoietin (0.5-10.0 U/ml) confers immediate cardioprotection in infant rabbit hearts and the contribution of protein kinases, nitric oxide synthase and potassium channels to the underlying mechanism. Hearts from normoxic infant Zealand White rabbits (n=8/group) were isolated and perfused in the Langendorff mode. Biventricular function was recorded under steady-state conditions prior to 30 minutes global no flow ischemia and 35 minutes reperfusion.
# Animals. Rabbits used in the study received humane care in compliance with the “Guide for the Care and Use of Laboratory Animals” formulated by the National Research Council, 1996. Infant New Zealand White rabbits were maintained for 10 days in a normoxic (SaO2>95%) or hypoxic (SaO2<85%) environment as described in Baker et al., Circulation 99:1249-54 (1999).
# Isolated heart perfusion. Isolated rabbit hearts were perfused with bicarbonate buffer at constant pressure in a retrograde manner and instrumented as described in Baker et al., Circulation 99:1249-54 (1999). Protein kinase inhibitors, potassium channel blockers or nitric oxide synthase inhibitors were added to this perfusate as needed. A 3-way tap, located immediately above the site of cannulation, allowed the entire perfusate to be diverted away from the heart to produce global, no-flow ischemia. Reperfusion was achieved by repositioning of the tap to allow perfusate to be delivered to the heart. Left and right ventricular function was monitored continuously throughout each experiment as described in Baker et al., Circulation 99:1249-54 (1999). End-diastolic pressure was initially set to 3 mmHg for 2 minutes. The balloons were then progressively inflated with a microsyringe to set end-diastolic pressures to 8 mmHg for the left ventricle and 4 mmHg for the right ventricle, with developed pressure and heart rate recorded during steady-state conditions. Coronary flow rate was measured throughout the experiment by timed collections of the coronary effluent from the right side of the heart into a graduated cylinder. Coronary flow rate was expressed as milliliters per minute per gram wet weight.
# Resistance to myocardial ischemia. Hearts from infant rabbits were perfused with bicarbonate buffer, and biventricular function was monitored continuously throughout each experiment as described in Rafiee et al., Circulation 106:239-45 (2002). For concentration response studies, hearts were then perfused with erythropoietin (0.5-10.0 U/ml) for 15 minutes prior to 30 minutes ischemia and 35 minutes reperfusion. For mechanism studies with protein kinase inhibitors, potassium channel blockers or nitric oxide synthase inhibitors, hearts were perfused with drugs for 15 minutes alone followed by 15 minutes in combination with erythropoietin prior to ischemia. Hearts perfused with protein kinase inhibitors or potassium channel blockers alone in the absence of erythropoietin for 30 minutes prior to ischemia served as untreated controls for these studies. Recovery of post-ischemic left and right ventricular developed pressure was expressed as a percentage of its pre-drug, pre-ischemic value.
# Assessment of ventricular function. Left and right ventricular function was monitored continuously throughout each experiment as described in Rafiee et al., Circulation 106:239-45 (2002).
# Hearts from New Zealand White rabbits at 9 days of age were perfused with erythropoietin at 0, 0.5, 1.0, 2.5, 5.0, and 10.0 U/ml for 15 minutes prior to 30 minutes global ischemia and 35 minutes reperfusion. Erythropoietin (1.0 U/ml) reduced coronary flow rate prior to ischemia from 7 ml/min/g to 6 ml/min/g but had no effect on heart rate (220±18 beats/min) or developed pressure in left (106±3 mm Hg) or right (42±3 mm Hg) ventricle.
# [2] = erythropoietin 1.0 U/ml, no effect
substance,measurement,setting,value
"erythropoietin: Recombinant human erythropoietin, a glycoprotein hormone, obtained from Cell Science, Inc.",treatment time at which phosphorylation of PKCε was maximal,PKCε,15 min
same,PKCε activation and translocation,PKCε; 5 or 15 minutes,activated and translocated from the cytosolic to the particulate fraction
same,cardioprotection after 20 minutes treatment versus 15-minute treatment,[1]; 1.0 U/ml for 20 minutes,no further increase in cardioprotection
same,minimum treatment period needed to confer cardioprotection in both left and right ventricle,[1]; 1.0 U/ml prior to ischemia,15 min
same,protective concentrations of erythropoietin in the in vitro studies,[1]; 15 min prior to ischemia,0.5-5.0 units/ml
same,developed pressure in left ventricle prior to ischemia,[1]; [2],106±3 mm Hg
same,developed pressure in right ventricle prior to ischemia,[1]; [2],42±3 mm Hg
same,heart rate prior to ischemia,[1]; [2],220±18 beats/min
same,coronary flow rate prior to ischemia,"[1]; erythropoietin 1.0 U/ml, reduced from 7 ml/min/g",6 mL/min/g
same,POST DRUG Coronary flow rate,[1]; EPO 0.5 U/ml for 15 min,3 ± 1 mL/min/g
same,POST DRUG Heart rate,[1]; EPO 0.5 U/ml for 15 min,196 ± 21 beats/min
same,POST DRUG Left ventricle developed pressure,[1]; EPO 0.5 U/ml for 15 min,102 ± 8 mmHg
same,POST DRUG Right ventricle developed pressure,[1]; EPO 0.5 U/ml for 15 min,38 ± 5 mmHg
same,REPERFUSION (35 min) Coronary flow rate,[1]; EPO 0.5 U/ml,4 ± 1 mL/min/g
same,REPERFUSION (35 min) Heart rate,[1]; EPO 0.5 U/ml,210 ± 19 beats/min
same,REPERFUSION (35 min) Left ventricle developed pressure,[1]; EPO 0.5 U/ml,67 ± 3 mmHg
same,REPERFUSION (35 min) Right ventricle developed pressure,[1]; EPO 0.5 U/ml,31 ± 4 mmHg
same,POST DRUG Coronary flow rate,[1]; EPO 1.0 U/ml for 15 min,3 ± 1 mL/min/g
same,POST DRUG Heart rate,[1]; EPO 1.0 U/ml for 15 min,199 ± 25 beats/min
same,POST DRUG Left ventricle developed pressure,[1]; EPO 1.0 U/ml for 15 min,99 ± 4 mmHg
same,POST DRUG Right ventricle developed pressure,[1]; EPO 1.0 U/ml for 15 min,38 ± 3 mmHg
same,REPERFUSION (35 min) Coronary flow rate,[1]; EPO 1.0 U/ml,5 ± 1 mL/min/g
same,REPERFUSION (35 min) Heart rate,[1]; EPO 1.0 U/ml,210 ± 30 beats/min
same,REPERFUSION (35 min) Left ventricle developed pressure,[1]; EPO 1.0 U/ml,71 ± 8 mmHg
same,REPERFUSION (35 min) Right ventricle developed pressure,[1]; EPO 1.0 U/ml,31 ± 2 mmHg
same,POST DRUG Coronary flow rate,[1]; EPO 2.5 U/ml for 15 min,4 ± 1 mL/min/g
same,POST DRUG Heart rate,[1]; EPO 2.5 U/ml for 15 min,210 ± 20 beats/min
same,POST DRUG Left ventricle developed pressure,[1]; EPO 2.5 U/ml for 15 min,103 ± 4 mmHg
same,POST DRUG Right ventricle developed pressure,[1]; EPO 2.5 U/ml for 15 min,41 ± 5 mmHg
same,REPERFUSION (35 min) Coronary flow rate,[1]; EPO 2.5 U/ml,5 ± 2 mL/min/g
same,REPERFUSION (35 min) Heart rate,[1]; EPO 2.5 U/ml,224 ± 14 beats/min
same,REPERFUSION (35 min) Left ventricle developed pressure,[1]; EPO 2.5 U/ml,64 ± 3 mmHg
same,REPERFUSION (35 min) Right ventricle developed pressure,[1]; EPO 2.5 U/ml,31 ± 3 mmHg
same,POST DRUG Coronary flow rate,[1]; EPO 5.0 U/ml for 15 min,4 ± 1 mL/min/g
same,POST DRUG Heart rate,[1]; EPO 5.0 U/ml for 15 min,221 ± 20 beats/min
same,POST DRUG Left ventricle developed pressure,[1]; EPO 5.0 U/ml for 15 min,102 ± 6 mmHg
same,POST DRUG Right ventricle developed pressure,[1]; EPO 5.0 U/ml for 15 min,43 ± 7 mmHg
same,REPERFUSION (35 min) Coronary flow rate,[1]; EPO 5.0 U/ml,4 ± 1 mL/min/g
same,REPERFUSION (35 min) Heart rate,[1]; EPO 5.0 U/ml,226 ± 26 beats/min
same,REPERFUSION (35 min) Left ventricle developed pressure,[1]; EPO 5.0 U/ml,64 ± 4 mmHg
same,REPERFUSION (35 min) Right ventricle developed pressure,[1]; EPO 5.0 U/ml,32 ± 5 mmHg
same,POST DRUG Coronary flow rate,[1]; EPO 10 U/ml for 15 min,5 ± 2 mL/min/g
same,POST DRUG Heart rate,[1]; EPO 10 U/ml for 15 min,232 ± 52 beats/min
same,POST DRUG Left ventricle developed pressure,[1]; EPO 10 U/ml for 15 min,101 ± 5 mmHg
same,POST DRUG Right ventricle developed pressure,[1]; EPO 10 U/ml for 15 min,40 ± 5 mmHg
same,REPERFUSION (35 min) Coronary flow rate,[1]; EPO 10 U/ml,5 ± 1 mL/min/g
same,REPERFUSION (35 min) Heart rate,[1]; EPO 10 U/ml,230 ± 49 beats/min
same,REPERFUSION (35 min) Left ventricle developed pressure,[1]; EPO 10 U/ml,52 ± 3 mmHg
same,REPERFUSION (35 min) Right ventricle developed pressure,[1]; EPO 10 U/ml,28 ± 4 mmHg

# Reference: patent US20040198663A1, “Method of treating cardiac ischemia by using erythropoietin” (priority 2003, published 2004)
